In PMC12394658, “Discovery of Zharp1-163 as a dual inhibitor of ferroptosis and necroptosis for the treatment of inflammatory disorders and kidney injury” (Cell Death Discovery, 2025):

Experiments:
Experiment in all cases: biochemical
Parameters in all cases: Kinase selectivity panel of 81 human kinases, ADP-Glo or HTRF, per cent inhibition at 1 uM
AKT1 = AKT1 (Homo sapiens, UniProt P31749)
Method in brief: (§1)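 Kinase-panel selectivity profiling of 81 kinases with compound at 1000 nM.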

CK1α = molecular target: T1, CK1α (Homo sapiens, UniProt P48729)
T1 construct: gene CSNK1A1
T1 sequence (P48729 whole entry): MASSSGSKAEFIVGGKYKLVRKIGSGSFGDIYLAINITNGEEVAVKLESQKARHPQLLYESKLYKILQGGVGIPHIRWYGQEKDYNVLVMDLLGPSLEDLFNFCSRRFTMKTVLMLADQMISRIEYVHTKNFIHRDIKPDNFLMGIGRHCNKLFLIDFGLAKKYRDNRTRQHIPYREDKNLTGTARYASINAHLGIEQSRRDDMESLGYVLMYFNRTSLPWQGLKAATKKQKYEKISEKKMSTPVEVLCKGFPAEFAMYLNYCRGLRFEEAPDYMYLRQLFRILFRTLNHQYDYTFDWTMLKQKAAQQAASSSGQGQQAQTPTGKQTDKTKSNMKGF
Method in brief: as §1

CK2α1/β = molecular target: T2, CK2α1/β (Homo sapiens, UniProt P68400)
T2 construct: gene CSNK2A1
T2 sequence (P68400 whole entry): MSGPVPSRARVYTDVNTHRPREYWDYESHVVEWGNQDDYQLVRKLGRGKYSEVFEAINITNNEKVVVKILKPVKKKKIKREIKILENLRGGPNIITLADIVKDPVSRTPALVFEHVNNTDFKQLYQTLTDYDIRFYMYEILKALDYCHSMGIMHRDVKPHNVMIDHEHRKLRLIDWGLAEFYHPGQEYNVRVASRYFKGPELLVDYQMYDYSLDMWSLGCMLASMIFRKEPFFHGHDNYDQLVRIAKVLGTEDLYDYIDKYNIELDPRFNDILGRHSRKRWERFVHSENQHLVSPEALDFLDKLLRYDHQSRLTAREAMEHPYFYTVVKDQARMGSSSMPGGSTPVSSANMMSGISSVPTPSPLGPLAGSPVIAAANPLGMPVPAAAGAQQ
T2 sequence (P67870 whole entry partner): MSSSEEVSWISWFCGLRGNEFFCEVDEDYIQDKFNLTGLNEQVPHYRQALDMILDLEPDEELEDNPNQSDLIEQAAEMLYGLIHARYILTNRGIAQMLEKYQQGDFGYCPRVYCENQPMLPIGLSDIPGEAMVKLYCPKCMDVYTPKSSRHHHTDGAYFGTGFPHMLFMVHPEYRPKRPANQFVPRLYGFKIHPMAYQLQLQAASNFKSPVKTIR
Method in brief: as §1

CLK1 = CLK1 (Homo sapiens, UniProt P49759)
CLK1, sequence (P49759 whole entry): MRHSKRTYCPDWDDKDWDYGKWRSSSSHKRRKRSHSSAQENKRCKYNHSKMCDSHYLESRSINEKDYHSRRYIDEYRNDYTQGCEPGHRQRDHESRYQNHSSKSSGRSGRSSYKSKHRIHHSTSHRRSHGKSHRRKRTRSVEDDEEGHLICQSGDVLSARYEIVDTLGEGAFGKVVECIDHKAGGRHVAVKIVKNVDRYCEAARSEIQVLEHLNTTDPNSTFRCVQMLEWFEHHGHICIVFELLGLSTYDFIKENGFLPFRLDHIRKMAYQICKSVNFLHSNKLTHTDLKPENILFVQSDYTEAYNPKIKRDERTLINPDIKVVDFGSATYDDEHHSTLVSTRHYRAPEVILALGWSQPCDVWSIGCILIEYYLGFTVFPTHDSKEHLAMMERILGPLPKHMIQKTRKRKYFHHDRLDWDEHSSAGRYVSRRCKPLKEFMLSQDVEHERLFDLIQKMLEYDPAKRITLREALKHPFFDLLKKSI
Method in brief: as §1

DYRK1B = DYRK1B (Homo sapiens, UniProt Q9Y463)
Method in brief: as §1

IKKα = molecular target: T3, IKKα (Homo sapiens, UniProt O15111)
T3 construct: gene CHUK
T3 sequence (O15111 whole entry): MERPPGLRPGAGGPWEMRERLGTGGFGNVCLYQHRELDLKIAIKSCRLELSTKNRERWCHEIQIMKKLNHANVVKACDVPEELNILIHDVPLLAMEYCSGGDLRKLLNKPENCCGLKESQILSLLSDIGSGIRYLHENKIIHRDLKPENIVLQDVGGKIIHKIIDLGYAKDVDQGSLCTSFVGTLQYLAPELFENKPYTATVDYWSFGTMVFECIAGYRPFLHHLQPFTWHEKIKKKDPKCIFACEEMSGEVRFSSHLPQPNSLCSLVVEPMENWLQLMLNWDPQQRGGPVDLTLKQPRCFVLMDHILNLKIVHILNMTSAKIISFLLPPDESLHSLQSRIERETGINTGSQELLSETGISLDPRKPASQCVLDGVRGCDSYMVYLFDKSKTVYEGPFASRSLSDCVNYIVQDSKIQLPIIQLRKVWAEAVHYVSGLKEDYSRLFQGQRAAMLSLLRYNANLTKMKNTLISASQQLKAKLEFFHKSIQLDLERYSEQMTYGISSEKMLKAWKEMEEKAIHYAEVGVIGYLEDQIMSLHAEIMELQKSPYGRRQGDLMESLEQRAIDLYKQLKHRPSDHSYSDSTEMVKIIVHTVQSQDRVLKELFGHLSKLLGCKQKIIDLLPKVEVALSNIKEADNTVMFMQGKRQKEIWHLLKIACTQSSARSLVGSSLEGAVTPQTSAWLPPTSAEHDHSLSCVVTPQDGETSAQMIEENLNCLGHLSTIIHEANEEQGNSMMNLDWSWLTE
Method in brief: as §1

IRAK1 = IRAK1 (Homo sapiens, UniProt P51617)
IRAK1, sequence (P51617 whole entry): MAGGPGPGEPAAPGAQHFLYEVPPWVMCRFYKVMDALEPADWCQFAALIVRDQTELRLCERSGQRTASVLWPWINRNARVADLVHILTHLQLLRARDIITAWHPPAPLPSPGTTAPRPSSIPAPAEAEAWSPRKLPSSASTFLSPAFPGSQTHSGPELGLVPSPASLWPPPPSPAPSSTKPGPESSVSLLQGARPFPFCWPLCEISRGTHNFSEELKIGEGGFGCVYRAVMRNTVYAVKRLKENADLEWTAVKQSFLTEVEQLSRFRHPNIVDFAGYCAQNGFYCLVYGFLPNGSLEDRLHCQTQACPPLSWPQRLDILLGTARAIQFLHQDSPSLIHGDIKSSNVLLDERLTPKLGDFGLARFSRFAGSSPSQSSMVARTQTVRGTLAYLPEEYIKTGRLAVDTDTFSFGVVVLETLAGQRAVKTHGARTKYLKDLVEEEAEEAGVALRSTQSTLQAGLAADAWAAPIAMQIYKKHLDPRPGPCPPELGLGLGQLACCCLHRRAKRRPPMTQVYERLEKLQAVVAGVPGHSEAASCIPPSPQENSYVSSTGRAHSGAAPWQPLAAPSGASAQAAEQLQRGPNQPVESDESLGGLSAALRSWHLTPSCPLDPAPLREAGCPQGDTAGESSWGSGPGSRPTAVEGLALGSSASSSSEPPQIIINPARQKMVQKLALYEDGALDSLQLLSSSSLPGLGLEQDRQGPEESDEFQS
Method in brief: as §1

MAPKAPK2 = MAPKAPK2 (Homo sapiens, UniProt P49137)
MAPKAPK2, sequence (P49137 whole entry): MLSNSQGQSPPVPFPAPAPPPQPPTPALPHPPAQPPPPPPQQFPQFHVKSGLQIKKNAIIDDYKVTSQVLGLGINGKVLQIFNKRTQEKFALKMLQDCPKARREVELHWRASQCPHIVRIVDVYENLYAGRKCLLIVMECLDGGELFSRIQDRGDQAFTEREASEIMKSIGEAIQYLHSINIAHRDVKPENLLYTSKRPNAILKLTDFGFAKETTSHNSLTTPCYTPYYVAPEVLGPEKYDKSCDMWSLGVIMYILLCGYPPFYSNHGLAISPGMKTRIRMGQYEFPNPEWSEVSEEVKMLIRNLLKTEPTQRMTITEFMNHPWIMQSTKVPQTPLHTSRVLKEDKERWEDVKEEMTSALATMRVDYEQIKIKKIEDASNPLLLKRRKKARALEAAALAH
Method in brief: as §1

MARK4 = MARK4 (Homo sapiens, UniProt Q96L34)
Method in brief: as §1

QIK = molecular target: T4, QIK (Homo sapiens, UniProt Q9H0K1)
T4 construct: gene SIK2
T4 sequence (Q9H0K1 whole entry): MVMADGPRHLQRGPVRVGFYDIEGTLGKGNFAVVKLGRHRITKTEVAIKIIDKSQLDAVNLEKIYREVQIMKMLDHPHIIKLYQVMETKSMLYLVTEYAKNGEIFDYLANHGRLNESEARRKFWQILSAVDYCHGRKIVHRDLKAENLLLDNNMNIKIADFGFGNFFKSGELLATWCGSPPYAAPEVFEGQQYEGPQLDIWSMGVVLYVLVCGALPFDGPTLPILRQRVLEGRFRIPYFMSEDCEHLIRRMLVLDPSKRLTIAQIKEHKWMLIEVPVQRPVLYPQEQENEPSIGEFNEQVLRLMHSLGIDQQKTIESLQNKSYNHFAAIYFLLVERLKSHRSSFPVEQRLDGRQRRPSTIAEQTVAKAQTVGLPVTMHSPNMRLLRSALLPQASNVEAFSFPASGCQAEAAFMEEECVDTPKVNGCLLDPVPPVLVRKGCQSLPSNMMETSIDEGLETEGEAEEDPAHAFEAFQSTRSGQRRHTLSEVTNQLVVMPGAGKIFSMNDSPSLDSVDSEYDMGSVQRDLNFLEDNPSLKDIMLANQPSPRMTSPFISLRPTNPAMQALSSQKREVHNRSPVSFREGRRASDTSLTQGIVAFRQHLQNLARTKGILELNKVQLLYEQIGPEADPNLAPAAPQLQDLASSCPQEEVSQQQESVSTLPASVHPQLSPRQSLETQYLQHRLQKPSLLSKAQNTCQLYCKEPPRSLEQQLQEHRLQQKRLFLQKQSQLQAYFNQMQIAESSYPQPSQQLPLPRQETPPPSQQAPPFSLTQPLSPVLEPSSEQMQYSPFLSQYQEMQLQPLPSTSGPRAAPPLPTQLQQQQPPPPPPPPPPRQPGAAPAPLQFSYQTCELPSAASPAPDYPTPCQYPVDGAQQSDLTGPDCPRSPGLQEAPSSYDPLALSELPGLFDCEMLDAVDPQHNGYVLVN
Method in brief: as §1

TAOK1 = TAOK1 (Homo sapiens, UniProt Q7L7X3)
Method in brief: as §1

TGFβR1 = molecular target: T5, TGFβR1 (Homo sapiens, UniProt P36897)
T5 construct: gene TGFBR1
T5 sequence (P36897 whole entry): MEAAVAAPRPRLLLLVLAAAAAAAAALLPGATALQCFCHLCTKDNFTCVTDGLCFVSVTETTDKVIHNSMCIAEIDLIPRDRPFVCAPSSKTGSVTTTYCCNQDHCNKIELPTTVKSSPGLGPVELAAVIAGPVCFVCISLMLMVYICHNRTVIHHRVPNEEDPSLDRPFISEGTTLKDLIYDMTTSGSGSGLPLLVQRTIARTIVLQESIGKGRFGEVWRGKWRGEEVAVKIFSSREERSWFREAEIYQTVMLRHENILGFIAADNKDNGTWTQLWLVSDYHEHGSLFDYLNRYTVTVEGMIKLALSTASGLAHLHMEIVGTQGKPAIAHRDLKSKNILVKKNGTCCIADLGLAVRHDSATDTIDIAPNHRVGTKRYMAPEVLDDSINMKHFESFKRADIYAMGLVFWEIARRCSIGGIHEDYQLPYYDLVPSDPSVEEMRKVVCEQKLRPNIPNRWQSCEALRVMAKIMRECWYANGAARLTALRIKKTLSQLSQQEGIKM
Method in brief: as §1

TIE2 = molecular target: T6, TIE2 (Homo sapiens, UniProt Q02763)
T6 construct: gene TEK
Method in brief: as §1

WEE1 = WEE1 (Homo sapiens, UniProt P30291)
Method in brief: as §1

**Q.** For `Nc1cn2cc(-c3cnc4c(c3)N(C(=O)OC3CCCCC3)CCO4)ccc2n1` [Zharp1-163], which inhibition at 1 µM (AKT1; replicate Data1) is on record?
**A.** Its inhibition at 1 µM is -1.95%.

**Q.** What about the inhibition at 1 µM (AKT1; replicate Data2) of the same compound?
**A.** The inhibition at 1 µM was 6.27%.

**Q.** And the inhibition at 1 µM (CK1α; replicate Data1)?
**A.** The inhibition at 1 µM was -4.65%.

**Q.** What about the inhibition at 1 µM (CK1α; replicate Data2) of the same compound?
**A.** The inhibition at 1 µM was -16.6%.

**Q.** What about the inhibition at 1 µM (CK2α1/β; replicate Data1) of the same compound?
**A.** The inhibition at 1 µM was -12.2%.

**Q.** And the inhibition at 1 µM (CK2α1/β; replicate Data2)?
**A.** The inhibition at 1 µM was 5.04%.

**Q.** What about the inhibition at 1 µM (CLK1; replicate Data1) of the same compound?
**A.** The inhibition at 1 µM was 38.1%.

**Q.** What about the inhibition at 1 µM (CLK1; replicate Data2) of the same compound?
**A.** Its inhibition at 1 µM is 33.2%.

**Q.** What about the inhibition at 1 µM (DYRK1B; replicate Data1) of the same compound?
**A.** The inhibition at 1 µM was 16.6%.

**Q.** What about the inhibition at 1 µM (DYRK1B; replicate Data2) of the same compound?
**A.** The inhibition at 1 µM was 9.23%.

**Q.** What about the inhibition at 1 µM (IKKα; replicate Data1) of the same compound?
**A.** The inhibition at 1 µM was 0.19%.

**Q.** What about the inhibition at 1 µM (IKKα; replicate Data2) of the same compound?
**A.** Its inhibition at 1 µM is 7.24%.

**Q.** What about the inhibition at 1 µM (IRAK1; replicate Data1) of the same compound?
**A.** The inhibition at 1 µM was 1.3%.

**Q.** What about the inhibition at 1 µM (IRAK1; replicate Data2) of the same compound?
**A.** The inhibition at 1 µM was -3.6%.

**Q.** And the inhibition at 1 µM (MAPKAPK2; replicate Data1)?
**A.** Its inhibition at 1 µM is -3.5%.

**Q.** And the inhibition at 1 µM (MAPKAPK2; replicate Data2)?
**A.** The inhibition at 1 µM was -31.8%.

**Q.** And the inhibition at 1 µM (MARK4; replicate Data1)?
**A.** The inhibition at 1 µM was 14.3%.

**Q.** And the inhibition at 1 µM (MARK4; replicate Data2)?
**A.** Its inhibition at 1 µM is 0.49%.

**Q.** What about the inhibition at 1 µM (QIK; replicate Data1) of the same compound?
**A.** Its inhibition at 1 µM is 9.18%.

**Q.** And the inhibition at 1 µM (QIK; replicate Data2)?
**A.** The inhibition at 1 µM was 2.94%.

**Q.** And the inhibition at 1 µM (TAOK1; replicate Data1)?
**A.** Its inhibition at 1 µM is 2.07%.

**Q.** What about the inhibition at 1 µM (TAOK1; replicate Data2) of the same compound?
**A.** Its inhibition at 1 µM is -4.35%.

**Q.** And the inhibition at 1 µM (TGFβR1; replicate Data1)?
**A.** The inhibition at 1 µM was 7.16%.

**Q.** What about the inhibition at 1 µM (TGFβR1; replicate Data2) of the same compound?
**A.** The inhibition at 1 µM was 7.76%.

**Q.** And the inhibition at 1 µM (TIE2; replicate Data1)?
**A.** The inhibition at 1 µM was 11.9%.

**Q.** What about the inhibition at 1 µM (TIE2; replicate Data2) of the same compound?
**A.** Its inhibition at 1 µM is 26.5%.

**Q.** And the inhibition at 1 µM (WEE1; replicate Data1)?
**A.** Its inhibition at 1 µM is 9.26%.

**Q.** What about the inhibition at 1 µM (WEE1; replicate Data2) of the same compound?
**A.** The inhibition at 1 µM was 4.33%.
